Read-outs that look alike come from different tables or passages of the source.
How the values were obtained:
[1] = system: oxaliplatin-induced neuropathy; assay: Oxaliplatin-induced neuropathy in rats, paw pressure test; type: in vivo, Sprague-Dawley rats; details: 300 mg/kg p.o. once a day
Protocol: Paw pressure test was performed 4 days after the last injection (Marchand F. et al. 2003, Brain Res. 980:117-120). • Taxol: taxol neuropathy was induced by intraperitoneal administration of 0.5 mg/kg once a day, on days 1, 3, 5 and 8. […] The pharmacological test was performed 14-18 days after the last taxol injection (Polomano R. C. et al. 2001, Pain 94:293-304). • Oxaliplatin: 2.4 mg/kg were injected by intraperitoneal route for 5 consecutive days followed by 2 days suspension (one cycle). A total of 3 cycles was performed, reaching a cumulative dose of 36 mg/kg (Cavaletti G. 2001, Eur. J. Cancer 37:2457-2463). The test was performed 48 h after the last oxaliplatin injection. 1.2 Antiviral-Induced Neuropathy […] The nociceptive threshold was determined with an analgesimeter (Ugo Basile, Italy), exerting a force that increases at constant rate (32 g/s) according to the method described by Leighton G. E. 1988, Br. J. Pharmacol. 93:553-560. The stimulus causing paw withdrawal was evaluated before and at different times after treatment. Results represent the mean of mechanical thresholds expressed as grams. To avoid any possible damage to the animal paw the maximum applied force was fixed at 240 g. The effect of […] evaluated in the oxaliplatin-induced neuropathy model after repeated administration with the paw pressure test.

ddC-induced neuropathy [2] = assay: ddC-induced (antiviral-induced) neuropathy, von Frey test; type: in vivo, Sprague Dawley rats; details: 100 mg/kg
Protocol: (§1) Adult male Sprague Dawley rats (150-200 g, supplier Harlan) were treated by intravenous route with a single administration of 25 mg/kg of nucleoside reverse transcriptase inhibitors ddC (2′,3′-dideoxycytidine) or d4T (2′,3′-didehydro-3′-deoxythymidine). Administration of these anti-HIV drugs induced a marked allodynic response to a mechanical stimulus (Joseph E. K. 2004, Pain 107:147-158). The maximum reduction of the paw pressure threshold is developed between day 5 and day 10 after injection. The test was performed on day 10.
Rats (male adult Sprague Dawley rats, 150-200 g, supplier Harlan) were placed in a chamber with a mesh metal floor covered by a plastic dome that enabled the animals to walk freely, but not to jump. The mechanical stimulus was delivered in the mid-plantar skin of left hind paw using an electronic von Frey apparatus. The cut-off was fixed at 50 g, while the increasing force rate (ramp duration) was settled at 20 sec.

[3] = system: MIA-induced osteoarthritic pain; assay: MIA-induced osteoarthritic pain in rats, paw pressure test; type: in vivo, Sprague Dawley rats
Protocol: Osteoarthritis was induced by a single administration of 2 mg (in a volume of 25 μl) of sodium 2-iodoacetate into the left knee joint of anaesthetized rats (male adult Sprague Dawley rats, 150-200 g, supplier Harlan) (Fernihough J. 2004, Pain 112:83-93). This treatment induces the progressive degeneration of the joint and the development of hyperalgesia, mimicking at the histological and behavioral levels what observed in humans. Pharmacological test was performed 7 days after treatment.
(§2) Mechanical hyperalgesia in rats (male adult Sprague Dawley rats, 150-200 g, supplier Harlan) was determined using the paw pressure test. The nociceptive threshold was determined with an analgesimeter (Ugo Basile, Italy), exerting a force that increases at constant rate (32 g/s) according to the method described by Leighton G. E. 1988, Br. J. Pharmacol. 93:553-560. The stimulus causing paw withdrawal was evaluated before and at different times after treatment. Results represent the mean of mechanical thresholds expressed as grams. To avoid any possible damage to the animal paw the maximum applied force was fixed at 240 g.

rats motor coordination = assay: Motor coordination in rats (rotarod); type: in vivo, Sprague Dawley rats
Protocol: The rotarod test allows the evaluation of the effects of a compound on motor coordination. Adult male Sprague Dawley rats (200-220 g, supplier Harlan, Milan) were placed on a plastic rod 6 cm in diameter and 35 cm in length, rotating at constant speed (16 rpm) at a height of 25 cm. The rod is divided in 4 equal sections, thus up to 4 animals may be tested simultaneously. The animals were required to walk against the motion of the rotating drum over 30 seconds. The time taken to fall off the rotarod was recorded as number of falls in 30 seconds, following the method of Vaught et al. 1985, Neuropharmacology 24:211-216. In each experiment motor coordination is measured before (pre-test) and after administration of the tested compound. Rats scoring less than 3 and more than 6 falls in the pretest are rejected.

rats [4] = assay: Rotarod/ataxia test in rats; details: p.o., rotating rod 10 rpm
Protocol: (§3) Neurological deficits were evaluated by the inability of the rats to remain on the rotating rod (10 rpm) for the test period.

rats [5] = assay: Irwin test in rats; type: in vivo, Sprague Dawley rats
Protocol: To verify if the administration of the compound may induce centrally mediated side effects, adult male Sprague Dawley rats (150-200 g, supplier Harlan) were treated with dimiracetam by subcutaneous and oral routes and monitored according to the “Irwin test” protocol (Irwin 1968, Psychopharmacologia 13:222-257), a systematic and quantitative procedure for assessing the behavioral and physiological modifications induced in animals by the drug treatment.
Rats were constantly monitored for 30 min after administration. Monitoring was iterated every morning at 9 a.m. for 4 days after administration.

mice = assay: Hole board test in mice; type: in vivo, Swiss Webster mice; details: 30 min after oral administration
Excerpt: The hole board test allows to study the behavior of rodents when confronted with a new environment (Boissier J R 1964, Therapie 19:571-583). The test enables to evaluate the initial exploratory activity of the animal and its possible variations induced by drug administration.
The hole board test uses a 40 cm square plane with 16 flush-mounted cylindrical holes (diameter 3 cm) distributed 4 by 4 in an equidistant, grid-like manner. Mice (male Swiss Webster mice weighing 25-30 g, supplier Morini) are placed one by one in the center of the board and allowed to move freely, each for a period of 5 min. Two photoelectric beams, crossing the plane from mid-point to mid-point of opposite sides, and thus dividing the plane into four equal quadrants, automatically record the movements of the animals on the plane surface. Miniature photoelectric cells in each of the 16 holes record the exploration of the holes (head plunging activity) by the mice.

Sprague Dawley rats [6] = details: rat, in vivo, 3000 mg/kg
Sprague Dawley rats [7] = details: rat, in vivo, po, 2500 mg/kg/day
Cynomolgus monkeys = details: cynomolgus monkey, in vivo, po, 2000 mg/kg/day
[8] = oral doses greater than 10 mg/kg (J. Med. Chem., 1993, 36:4214-4220); cited from earlier work
ddC-induced neuropathy [9] = assay: ddC-induced neuropathy, paw pressure test; type: in vivo, Sprague Dawley rats; details: 300 mg/kg orally
Protocol: as §1
as §2, with “To avoid any possible damage to the animal paw the maximum applied force was fixed at 240 g.” left out
Dimiracetam is a racemic compound; the two corresponding enantiomers were synthesized and separately tested in the ddC-induced neuropathy model. The two compounds were administered orally at doses of 150 and 300 mg/kg and their antihyperalgesic activity was evaluated with the paw pressure test.

[10] = Rotarod/ataxia test in rats; details: rat, in vivo, po
Protocol: as §3

[11] = 150 mg/kg, 15-30 min after administration

## O=C1CN2C(=O)CCC2N1 (racemic) [dimiracetam, 2,5-dioxohexahydro-1H-pyrrolo[1,2-a]imidazole]
[1]
  time after administration at which effect was statistically significant: between 30 min and 4 h
[1]; starting three days before oxaliplatin treatment and during it
  mechanical hyperalgesia (paw pressure test): significantly reduced mechanical hyperalgesia
ddC-induced neuropathy [2]; 15-30 min after administration
  ddC-induced allodynia (von Frey mechanical threshold): fully reverted ddC-induced allodynia
ddC-induced neuropathy [2]; 45 min after treatment
  ddC-induced allodynia (von Frey mechanical threshold): still statistically significant
[3]; [11]
  reversal of MIA-induced hyperalgesia (paw pressure test): statistically significant effect
[3]; 300 mg/kg, 60 min after administration
  reversal of MIA-induced hyperalgesia (paw pressure test): still statistically significant
[3]; 300 mg/kg, between 15 and 45 min after administration
  reversal of MIA-induced hyperalgesia (paw pressure test): fully reverted MIA-induced hyperalgesia
Rats motor coordination; 3000 mg/kg p.o., acute
  motor coordination (number of falls in 30 sec, rotarod): does not alter rats motor coordination
Rats [4]
  TD25 (dose causing 25% of fallen rats): 6000 mg/kg
Rats [5]; 1000 mg/kg by subcutaneous route
  effects on behavioral parameters (Irwin test): did not show any effects
Rats [5]; 3000 mg/kg p.o.
  effects on behavioral parameters (Irwin test): did not show any effects
mice; 3000 mg/kg p.o.
  curiosity (number of head plungings): does not significantly reduce
  spontaneous activity (number of movements of each animal on the plane): does not significantly reduce
Sprague Dawley rats [6]; iv
  tolerability / signs of toxicity, single dose: substantially well tolerated
Sprague Dawley rats [6]; po
  tolerability / signs of toxicity, single dose: substantially well tolerated
Sprague Dawley rats [7]
  mortality, symptomatology, normal behavior, repeated dose: did not produce any changes
  tolerability, repeated dose: well tolerated
Cynomolgus monkeys
  tolerability, repeated dose: well tolerated
[8]
  nootropic activity, dose-response: tends to lower

## O=C1CN2C(=O)CC[C@H]2N1 (single isomer, unassigned) [(S) enantiomer]
ddC-induced neuropathy [9]; 15 min after administration
  antihyperalgesic activity (paw pressure mechanical threshold): significant effect

## O=C1CN2C(=O)CC[C@@H]2N1 [(R)-dimiracetam]
ddC-induced neuropathy [9]; 15-45 min after administration
  antihyperalgesic activity (paw pressure mechanical threshold): significant reduction of the pain mechanical threshold
[3]; [11]
  reversal of MIA-induced hyperalgesia (paw pressure test): statistically significant effect
[3]; 45 min after treatment, dose not restated
  reversal of MIA-induced hyperalgesia (paw pressure test): still statistically significant

## NCC1(CC(=O)O)CCCCC1 [Gabapentin, gabapentin, reference compound]
Rats [4]
  TD16 (dose causing 16% of fallen rats): 1000 mg/kg
mice; 1000 mg/kg
  curiosity (number of head plungings): statistically significant reduction
  spontaneous activity (number of movements of each animal on the plane): statistically significant reduction

## N#Cc1cccc(N2C(=O)CN3C(=O)CCC32)c1 (stereo not shown) [I-(3-cyanophenyl)-tetrahydropyrrolo[1,2-a]imidazole-2,5-dione]
Rats motor coordination; rat, in vivo
  dose from which the number of falls is increased (rotarod): 300 mg/kg
Rats motor coordination; starting from the dose of 300 mg/kg
  motor coordination (number of falls in 30 sec, rotarod): significantly altered animals motor coordination

## CC[C@@H](C(N)=O)N1CCCC1=O [levetiracetam]
[10]
  TD50: 2000 mg/kg

## CC(C)C[C@H](CN)CC(=O)O [pregabalin]
[10]
  TD50: 536 mg/kg

## COc1cccc(C2(O)CCCCC2CN(C)C)c1 (stereo not shown) [tramadol]
[10]
  TD50: 253 mg/kg

— patent publication US8222241B2, “Use of dimiracetam in the treatment of chronic pain” (priority 2007, dated 2012)
